One experiment deals with SH-SY5Y. Put plainly: Antiproliferative activity against human SH-SY5Y cells incubated for 72 hrs by MTT assay. In kind it is functional, cell-based.
For another experiment, the system named is A549. Put plainly: Antiproliferative activity against human A549 cells incubated for 72 hrs by MTT assay. In kind it is functional, cell-based. The settings on record: A549, 72 h. A general note: Tetrazolium assays rely on reduction of a dye to a coloured formazan, in cell work by metabolically active cells.
Another experiment deals with HepG2. Put plainly: Antiproliferative activity against human HepG2 cells incubated for 72 hrs by MTT assay. The settings on record: HepG2, 72 h. In kind it is functional, cell-based.
A further experiment concerns MCF7. Put plainly: Antiproliferative activity against human MCF7 cells incubated for 72 hrs by MTT assay. In kind it is functional, cell-based. To be noted: MCF7, 72 h.
The subject of another experiment is DU-145. Put plainly: Antiproliferative activity against human DU145 cells incubated for 72 hrs by MTT assay. In kind it is functional, cell-based. To be noted: DU-145, 72 h.
Experiment [1] in a line: Cytotoxicity against human CCC-HPF1 cells assessed as decrease in cell viability incubated for 72 hrs by MTT assay. In kind it is cell-based. To be noted: CCC-HPF-1, 72 h.

pIC50: −log10 of the molar value.

Usually pIC50 stands for the IC50 on a negative log10 scale, so that one unit is a factor of ten.

On to `O=[N+]([O-])c1ccc(COc2cccc(Nc3ncnc4cc5c(cc34)OCCOCCO5)c2)cc1`, for which the negative logarithm of the IC50 (pIC50) in the experiment with SH-SY5Y was 4.44; in the experiment with A549, 4.81; in the experiment with HepG2, 4.18; in the experiment on MCF7 it was 4.37; in the experiment on DU-145, below 4.00.

`c1ccc(COc2ccc(Nc3ncnc4cc5c(cc34)OCCOCCO5)cc2)cc1`: the negative-log IC50 (pIC50) in the experiment on SH-SY5Y was 4.41; in the experiment with A549, 4.36; in the experiment on HepG2, 4.26; in the experiment with MCF7 it was below 4.00; in the experiment with DU-145, below 4.00.

As for `FC(F)(F)c1ccc(COc2ccccc2Nc2ncnc3cc4c(cc23)OCCOCCO4)cc1`, the pIC50 in the experiment on SH-SY5Y, in the experiment with A549, in the experiment on HepG2, with MCF7 and in the experiment with DU-145 was below 4.00 in each case.

Regarding `c1ccc(COc2cccc(Nc3ncnc4cc5c(cc34)OCCOCCOCCO5)c2)cc1`, the negative-log IC50 (pIC50) with SH-SY5Y was 4.64; with A549, below 4.00; in the experiment on HepG2 it was below 4.00; in the experiment with MCF7, below 4.00; with DU-145, below 4.00.

`O=[N+]([O-])c1ccc(COc2ccc(Nc3ncnc4cc5c(cc34)OCCOCCO5)cc2)cc1`: the pIC50 with SH-SY5Y is 4.26; in experiment [1], 4.33; in the experiment on A549, 5.06; with HepG2, below 4.00; with MCF7 it was 4.40; with DU-145, below 4.00.

For `c1ccc(COc2ccc(Nc3ncnc4cc5c(cc34)OCCOCCOCCOCCO5)cc2)cc1`, the pIC50 with SH-SY5Y was 5.28; in experiment [1] it was 4.47; in the experiment with A549, 4.53; in the experiment with HepG2, 4.93; in the experiment on MCF7 it was 4.92; with DU-145 it was 5.06.

Take `c1ccc(COc2ccccc2Nc2ncnc3cc4c(cc23)OCCOCCOCCO4)cc1`: the pIC50 is 4.01 in the experiment on SH-SY5Y; below 4.00 in experiment [1]; 5.16 in the experiment with A549; 4.43 with HepG2; 4.20 with MCF7; 4.86 in the experiment on DU-145.

As for `FC(F)(F)c1ccc(COc2ccc(Nc3ncnc4cc5c(cc34)OCCOCCO5)cc2)cc1`, the negative-log IC50 (pIC50) is 4.52 with SH-SY5Y; below 4.00 with A549; below 4.00 in the experiment on HepG2; below 4.00 with MCF7; below 4.00 with DU-145.

On to `O=[N+]([O-])c1ccc(COc2cccc(Nc3ncnc4cc5c(cc34)OCCOCCOCCOCCO5)c2)cc1`, for which the pIC50 in the experiment on SH-SY5Y was 5.07; in experiment [1] it was below 4.00; in the experiment on A549 it was 4.70; in the experiment on HepG2 it was 5.01; with MCF7, 5.19; in the experiment on DU-145 it was 4.86.

`O=[N+]([O-])c1ccc(COc2ccccc2Nc2ncnc3cc4c(cc23)OCCOCCOCCO4)cc1`: the pIC50 in the experiment with SH-SY5Y was 4.12; with A549 it was 4.52; in the experiment with HepG2, 4.22; with MCF7, below 4.00; in the experiment on DU-145, below 4.00.

For the compound `FC(F)(F)c1ccc(COc2ccc(Nc3ncnc4cc5c(cc34)OCCOCCOCCO5)cc2)cc1`, the negative-log IC50 (pIC50) in the experiment with SH-SY5Y was below 4.00; in the experiment with A549 it was 4.51; with HepG2, below 4.00; in the experiment on MCF7 it was 4.55; in the experiment with DU-145 it was below 4.00.

As for `c1ccc(COc2ccc(Nc3ncnc4cc5c(cc34)OCCOCCOCCO5)cc2)cc1`, the negative-log IC50 (pIC50) in the experiment on SH-SY5Y was 4.62; in experiment [1] it was below 4.00; with A549 it was below 4.00; in the experiment on HepG2, below 4.00; in the experiment with MCF7 it was 5.08; in the experiment on DU-145, below 4.00.

On to `c1ccc(COc2ccccc2Nc2ncnc3cc4c(cc23)OCCOCCO4)cc1`, for which the pIC50 was 4.03 with SH-SY5Y; below 4.00 in the experiment on A549; below 4.00 with HepG2; below 4.00 in the experiment on MCF7; below 4.00 with DU-145.

Regarding `O=[N+]([O-])c1ccc(COc2ccc(Nc3ncnc4cc5c(cc34)OCCOCCOCCOCCO5)cc2)cc1`, the pIC50 in the experiment on SH-SY5Y, in the experiment on A549, in the experiment on HepG2, in the experiment on MCF7 and in the experiment with DU-145 was below 4.00 each time.

Regarding `O=[N+]([O-])c1ccc(COc2cccc(Nc3ncnc4cc5c(cc34)OCCOCCOCCO5)c2)cc1`, the pIC50 with SH-SY5Y, with A549, with HepG2, in the experiment on MCF7 and with DU-145 was below 4.00 each time.

For the compound `FC(F)(F)c1ccc(COc2cccc(Nc3ncnc4cc5c(cc34)OCCOCCOCCOCCO5)c2)cc1`, the pIC50 with SH-SY5Y is 5.07; in experiment [1], 4.34; with A549 it was 5.07; in the experiment on HepG2 it was 5.24; in the experiment on MCF7, 5.07; with DU-145 it was 4.57.

In the case of `O=[N+]([O-])c1ccc(COc2ccccc2Nc2ncnc3cc4c(cc23)OCCOCCO4)cc1`, the negative logarithm of the IC50 (pIC50) was below 4.00 with SH-SY5Y; 4.55 in the experiment on A549; 4.30 in the experiment with HepG2; below 4.00 in the experiment on MCF7; 4.07 in the experiment with DU-145.

`FC(F)(F)c1ccc(COc2cccc(Nc3ncnc4cc5c(cc34)OCCOCCOCCO5)c2)cc1`: the pIC50 in the experiment on SH-SY5Y is 4.70; in experiment [1], 4.48; in the experiment with A549, 4.60; in the experiment with HepG2, 4.47; with MCF7, 4.75; with DU-145 it was 5.56.

Take `FC(F)(F)c1ccc(COc2cccc(Nc3ncnc4cc5c(cc34)OCCOCCO5)c2)cc1`: the pIC50 in the experiment on SH-SY5Y is 4.72; in the experiment on A549, below 4.00; in the experiment with HepG2, below 4.00; in the experiment on MCF7 it was below 4.00; with DU-145, below 4.00.

With `c1ccc(COc2ccccc2Nc2ncnc3cc4c(cc23)OCCOCCOCCOCCO4)cc1`, the negative-log IC50 (pIC50) in the experiment with SH-SY5Y was 4.62; in the experiment with A549, 4.31; in the experiment with HepG2, 4.53; in the experiment with MCF7 it was below 4.00; in the experiment with DU-145, below 4.00.

Consider `c1ccc(COc2cccc(Nc3ncnc4cc5c(cc34)OCCOCCO5)c2)cc1`, for which the pIC50 is 4.16 with SH-SY5Y; below 4.00 in experiment [1]; 5.12 in the experiment on A549; below 4.00 in the experiment with HepG2; 4.39 in the experiment with MCF7; below 4.00 in the experiment on DU-145.

Consider `FC(F)(F)c1ccc(COc2ccccc2Nc2ncnc3cc4c(cc23)OCCOCCOCCO4)cc1`, for which the negative logarithm of the IC50 (pIC50) with SH-SY5Y, in the experiment on A549, with HepG2, in the experiment with MCF7 and in the experiment with DU-145 was below 4.00 throughout.

Source of the values: ChEMBL document CHEMBL4304802, “Novel promising 4-anilinoquinazoline-based derivatives as multi-target RTKs inhibitors: Design, molecular docking, synthesis, and antitumor activities in vitro and vivo” (Bioorg Med Chem, 2019).
